Experiments:
[1] = biological target: Ah‐BarR (P ah‐at aminotransferase promoter, mKate2 reporter) (Acidianus hospitalis, UniProt F4B5V3); assay: cell-based
Protocol: (§1) Reporter gene assays were performed as previously described (Bernauw et al., [2022]). pPRC6 and pITC variants (Table 1) were co‐transformed in E. coli MG1655 chemical competent cells using heat shock transformation. Transformant colonies of the Ah‐BarR biosensor strains were picked to inoculate wells of a transparent 96‐well plate (Greiner Bio‐One), each well filled with 200 µL of MOPS EZ Rich Defined medium (Teknova), prepared without the addition of the 5X EZ Supplement, after which the plate was incubated overnight in a ThermoMixer C (Eppendorf) at 30°C and 300 rpm. Next, a black 96‐well plate was filled with a naringenin solution prepared in ethanol (250 mg/L or 2.5 g/L), after which a Breathe‐Easy sealing membrane (Sigma‐Aldrich) was applied and the ethanol was evaporated in a ThermoMixer C (Eppendorf) at 75°C. […] Finally, the plate was sealed again using a Breathe‐Easy sealing membrane (Sigma‐Aldrich).
(§2) Plates were incubated at 30°C and 300 rpm for 40 h in a Synergy H1 microplate reader (BioTek) with measurements of OD600 and fluorescence (excitation wavelength: 588 nm, emission wavelength: 633 nm) being taken every 20 min. The gain was set to 140 for all measurements, except for the measurements with the amino acids (pools and separately), where the gain was set to 150. […] In addition, wells solely containing medium were measured as well to correct for the background signal.
(§3) Reporter expression was analyzed at t = 30 h, when all cultures had reached the stationary phase, by taking into account three subsequent time points (t–1, t, t+1). The corrected FL/OD600 value was calculated for each replicate (n = 4) as follows: FL/ODcor=FLt−1−FLmed,t−1/ODt−1−ODmed,t−1+FLt−FLmed,t/ODt−ODmed,t+FLt+1−FLmed,t+1/ODt+1−ODmed,t+1/3
(§4) Response curves were fitted to a Hill function of the shape P(M)=b+aM^n/θ^n+M^nforaβ−alanine−inducible responseb+aθ^n/θ^n+M^nforaβ−alanine−repressible response according to a previously published procedure (Landry et al., [2018]) with minor adaptations. […] Briefly, lmfit 1.1.0 was used to fit all replicates of a response curve to the appropriate Hill function using the Levenberg‐Marquardt algorithm (Moré, [1978]; Newville et al., [2016]). […] The dynamic range was estimated as μ=a/b .

[2] = biological target: Ah‐BarR M103A (P ah‐barR promoter, mKate2 reporter) (Acidianus hospitalis, UniProt F4B5V3, M103A); assay: cell-based
Protocol: as §1, §2, §3, §4

[3] = BS2, β‐alanine 0–10 mM, 20 mg/L naringenin, Hill fit
[4] = BS1 M103A, β‐alanine 0–10 mM, 20 mg/L naringenin, Hill fit

Sequence of Ah‐BarR (P ah‐at aminotransferase promoter, mKate2 reporter) (F4B5V3 1-165): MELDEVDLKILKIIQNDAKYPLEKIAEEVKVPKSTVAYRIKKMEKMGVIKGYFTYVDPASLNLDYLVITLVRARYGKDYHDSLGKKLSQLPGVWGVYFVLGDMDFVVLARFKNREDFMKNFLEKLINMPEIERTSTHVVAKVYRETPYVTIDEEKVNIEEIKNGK
Sequence of Ah‐BarR M103A (P ah‐barR promoter, mKate2 reporter) (F4B5V3 entry or part of it M103A): as the sequence (F4B5V3 1-165) above, with M103A counted along it

Structure (SMILES): NCCC(=O)O [β‐alanine]
- EC50 [1]: 110 µM
- Hill coefficient n ([1]; BS2, 20 mg/L naringenin): 1.62
- Dynamic range µ ([1]; BS2, µ = a/b): 1.58
- Basal fluorescence output b [1, 3]: 313 RFU
- Maximum fluorescence increase a [1, 3]: 494 RFU
- EC50 [2]: 1.35 mM
- Hill coefficient n ([2]; BS1 M103A, 20 mg/L naringenin): 1.88
- Dynamic range µ ([2]; BS1 M103A, µ = a/b): 3.25
- Basal fluorescence output b [2, 4]: 2289 RFU
- Maximum fluorescence increase a [2, 4]: 7429 RFU

Source: article PMC10201364 (MicrobiologyOpen, 2023)
